Assay results: patent US9795138B2, “Method for increasing the vigor and/or crop yield of agricultural plants under essentially non-existent pathogen pressure” (Bayer CropScience LP, priority 2009, dated 2017)

Tests used:
peas = test: Pea seed treatment, greenhouse plant fresh weight, Colby; type: in vivo; details: 12 days at 20° C., pyraclostrobin 5 g/100 kg seed, SERENADE MAX 173 g/100 kg seed
Protocol: The active compounds were used applying commercially available formulations and diluted according to the concentrations/dose rates as stated in the respective data tables.
Seed treatment was done to seeds of peas using the Hege Seed Treatment equipment in a sequential approach. Pyraclostrobin was applied with a volume of 850 mL slurry per 100 kg seeds. Afterwards the stated amount of SERENADE® MAX was dissolved in a total volume of 8.3 L water (amount for 100 kg seeds) and applied sequentially in ten steps with drying of the seeds in between. The compounds were used as commercial finished formulations and diluted with water to the stated concentration of the active compound.
Seeds of peas were sown in soil (10 seeds/pot, 10 replications/treatment) and incubated in the greenhouse at 20° C. for 12 days. Plants were harvested and pooled per treatment and the plant fresh weight was determined.
The expected plant fresh weights of active compound mixtures were determined using Colby's formula as defined above [R. S. Colby, “Calculating Synergistic and Antagonistic Responses of Herbicide Combinations,” Weeds 15, 20-22 (1967)] and compared with the observed plant fresh weights.

[1] = tested on: maize plants (variety Burrus 616XLR); test: Maize field trial Carlyle, Ill.: grain yield, Colby; type: in vivo
Text: Maize was planted in 2009 at Carlyle, Ill., U.S.A. The variety Burrus 616XLR was planted at a conventional seeding rate and a row spacing of 76 cm. The trial was setup as a randomized bloc design with six replications. Plot size was 18 m^2. Pyraclostrobin was applied at developmental stage 34/37 (BBCH). Bacillus subtilis QST 713 (SERENADE® MAX) was applied to the maize plants at developmental stage 34/37 (BBCH) followed by a second application at developmental stage 55/57 (BBCH). Bacillus subtilis QST 713 (SERENADE® MAX) in combination with pyraclostrobin were applied as a tank mix at the developmental stage 34/37 (BBCH). The active ingredients were applied using commercial formulations SERENADE® MAX (14.3%, WP with 7.3×10^9 cfu/g) and HEADLINE® (250 g/L, EC). Total spray volume for foliar applications was 200 L/ha. […] At maturity the crop was harvested and grain yield was measured as t/ha (Table 10).
The expected yield increase by the combination of the active compounds was estimated using Colby's formula (Colby, S. R., “Calculating Synergistic and Antagonistic Responses of Herbicide Combinations,” Weeds, 15, pp. 20-22, 1967) and compared with the observed yield increase. […]

COC(=O)N(OC)c1ccccc1COc1ccn(-c2ccc(Cl)cc2)n1 [Pyraclostrobin, pyraclostrobin]
Fresh Weight (peas): 47 g | Grain Yield (t/ha) ([1]; maize, pyraclostrobin 0.44 L/ha solo (0.3 L/ha in mix) at BBCH 34/37, SERENADE MAX 3.0 kg/ha at 34/37 (solo also 55/57)): 8.32 t/ha | Observed Yield Increase (t/ha) ([1]; vs untreated, same treatments): 0.05 t/ha
